Laboratory results from patent US10765644B2, “Methods for the treatment of hepatitis C” (priority 2015, dated 2020).

Tests used:
[1] = test system: cell culture-derived HCV (HCVcc); experiment: microbe, parasite or virus in culture; format: cell-based, hepatitis C virus
Experimental: (§1) Huh7.5 cells were grown in Dulbecco's modified essential media (DMEM), 10% fetal bovine serum (FBS), 1% penicillin-streptomycin (pen-strep), 1% Non-essential amino acids (NEAA) in a 5% CO2 incubator at 37° C. Huh7.5 cells were seeded at 1×10^4 cells per well into 96-well plates according to Southern Research Institute standard format. Test articles were serially diluted with DMEM plus 5% FBS. The diluted compound in the amount of 50 μl was mixed with equal volume of cell culture-derived HCV (HCVcc), then applied to appropriate wells in the plate. Human interferon alpha-2b (rIFNα-2b) and/or Sofosbuvir were included as a positive control. After 72 hr incubation at 37° C., the cells were lysed for measurement of luciferase activity using Renilla Luciferase Assay System (Promega) according to manufacturer's instruction. The number of cells in each well were determined by CytoTox-1 reagent (Promega). Test articles were tested at 6 serial dilutions in triplicate to derive, if applicable, EC50 and EC90 (concentration inhibiting HCVcc infectivity by 50% and 90%, respectively), CC50 (concentration decreasing cell viability by 50%) and SI (selectivity index: CC50/EC50) values (Table 1).

[2] = in vitro; format: cell-based; conditions: human
Experimental: as §1

[3] = test system: HCV GT1B replicon; experiment: HCV replicon assay (antiviral, luciferase / qRT-PCR endpoint); format: cell-based, hepatitis C virus
Experimental: Stable HCV replicons of different genotypes may be used for anti-HCV evaluation.
The HCV replicon antiviral evaluation assay examined the effects of compounds at six serial dilutions. Human interferon alpha-2b (rIFNα-2b) and/or Sofosbuvir were included in each run as a positive control compound.
(§2) Briefly, the replicon cells were plated at 5,000 cells/well into 96-well plates that were dedicated for the analysis of cell numbers (cytotoxicity) or antiviral activity. On the following day, samples were diluted with assay media and added to the appropriate wells. Cells were processed 72 hours later when the cells were still sub-confluent. For the luciferase endpoint assay, HCV replicon levels were assessed as replicon-derived Luc activity. The concentration of drug that reduced cell viability was assessed by the fluorometric CytoTox-1 cell proliferation assay (Promega), (expressed as cell numbers). For the qRT-PCR/TaqMan assay, total RNA was extracted from the replicon cells using RNeasy 96 kit (Qiagen) according to the manufacturer's protocol. Real-time RTPCR/TaqMan assays were performed to measure copy numbers of the replicon RNA and cellular ribosomal RNA. Where applicable EC50 (concentration inhibiting HCV replicon by 50%), EC90 (concentration inhibiting HCV replicon by 90%), CC50 (concentration decreasing cell viability by 50%), CC90 (concentration decreasing cell viability by 90%) and SI (selectivity indices: CC50/EC50 and CC90/EC90) values were derived.

[4] = HCV replicon assay, cytotoxicity (CytoTox-1 cell proliferation assay); format: cell-based; conditions: HCV replicon cells, In vitro HCV replicon assay, post infection, read-out: CC50 (concentration decreasing cell viability by 50%)
Experimental: as §2

## CC[C@H](c1ccc(O)cc1)[C@@H](CC)c1ccc(O)cc1 [Hexestrol, meso 3,4-bis(4-hydroxyphenyl)hexane]
[1]; Hepatitis C viral infectivity assay
  anti-Hepatitis C activity (in words): significant anti-Hepatitis C activity
[1]; Hepatitis C virus, Huh7.5, 72 h, read-out: EC50 (concentration inhibiting HCVcc infectivity by 50%)
  EC50: 2.85 µM
[1]; In vitro HCVcc assay
  Selectivity index (CC50/EC50): 14.2
[2]
  CC50 at 72 h: 50.4 µM
[3]; HCV replicon assay
  anti-Hepatitis C activity (in words): significant anti-Hepatitis C activity
[3]; Hepatitis C virus, GT1B, 72 h, read-out: EC50 (concentration inhibiting HCV replicon by 50%)
  EC50: 10.9 µM
[3]; In vitro HCV replicon assay
  Selectivity index (CC50/EC50): 2.51
[4]
  CC50 at 72 h: 27.4 µM
